Test results from patent publication US10723701B2, “Quinolyl-substituted carboxylic acid compound or pharmaceutically acceptable salt thereof, pharmaceutical composition of the same, and use of the same” (BEIJING KONRUNS PHARMACEUTICAL CO., LTD., priority 2016, dated 2020).

Key:
AXL = target: T1, AXL (Homo sapiens, UniProt P30530); test: Radioactive protein kinase assay (33PanQinase Activity Assay), AXL; settings: ATP 0.3 μM (Km), substrate Poly(Glu, Tyr) 4:1, 30° C., 60 minutes; read-out: Biochemical IC50 (nM) AXL
T1 construct: purchased ProQinase GmbH
T1 sequence (P30530 26-894): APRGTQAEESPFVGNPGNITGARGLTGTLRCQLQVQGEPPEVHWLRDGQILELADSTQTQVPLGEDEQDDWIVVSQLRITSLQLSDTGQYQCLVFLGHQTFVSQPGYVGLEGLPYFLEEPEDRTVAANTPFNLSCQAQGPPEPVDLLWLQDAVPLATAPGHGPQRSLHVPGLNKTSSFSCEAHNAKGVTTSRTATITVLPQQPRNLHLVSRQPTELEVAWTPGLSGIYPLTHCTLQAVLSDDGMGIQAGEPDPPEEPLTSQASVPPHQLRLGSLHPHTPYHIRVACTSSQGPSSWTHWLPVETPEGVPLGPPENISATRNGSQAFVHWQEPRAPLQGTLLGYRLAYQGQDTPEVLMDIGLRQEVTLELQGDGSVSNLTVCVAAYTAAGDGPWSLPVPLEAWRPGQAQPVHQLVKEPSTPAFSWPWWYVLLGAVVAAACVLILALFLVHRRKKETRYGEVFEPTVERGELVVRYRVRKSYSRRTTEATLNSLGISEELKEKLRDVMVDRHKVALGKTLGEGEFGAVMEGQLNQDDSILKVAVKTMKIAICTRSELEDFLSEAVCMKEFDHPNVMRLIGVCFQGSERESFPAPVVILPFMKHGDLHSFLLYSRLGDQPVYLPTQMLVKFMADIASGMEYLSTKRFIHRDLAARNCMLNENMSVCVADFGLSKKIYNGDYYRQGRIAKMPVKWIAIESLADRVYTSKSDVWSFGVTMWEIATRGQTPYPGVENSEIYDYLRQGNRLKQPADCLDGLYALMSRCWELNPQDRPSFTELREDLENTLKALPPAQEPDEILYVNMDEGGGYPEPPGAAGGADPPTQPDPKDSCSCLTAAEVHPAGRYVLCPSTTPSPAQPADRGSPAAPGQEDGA
Method: (§1) Biochemical inhibitory activity against AXL and VEGFR2 kinases: the biochemical IC50 values of the compound according to the present application for inhibiting AXL and VEGFR2 kinases were measured by ProQinase GmbH Company (Breisacher Str. 117, D-79106 Freiburg, Germany, www.proqinase.com). The specific steps are described as follows:
(§2) Firstly, the compound according to the present application was dissolved in dimethyl sulfoxide (DMSO) to prepare a stock solution of 1×10^−3 M. 10 different concentrations (from […] to 3×10^−10 M) were prepared by the serial semi-logarithmic dilution.
(§3) The biochemical activities of AXL and VEGFR2 were determined by the radioactive protein kinase assay (33PanQinase® Activity Assay). The assay was performed using a FlashPlates™ 96-well plate manufactured by Perkin Elmer (Boston, Mass., USA) with a reaction volume of 50 μL. The reaction mixture was added by a dropper in the following four steps:
(§4) (1) 20 μL of buffer solution (standard buffer);
(§5) (2) 5 μL of an aqueous solution of ATP;
(§6) (3) 5 μL of the compound (10% DMSO solution);
(§7) (4) 10 μL of a substrate/10 μL of a solution of the kinase.
(§8) The solution to be measured contains HEPES-NaOH (70 mM, pH=7.5), MgCl2 (3 mM), MnCl2 (3 mM), Na-orthovanadate (3 μM), DTT (1.2 mM), PEG20000 (50 μg/mL), ATP (in a concentration that is same as Km of the kinase and varies depending on different kinases), [γ-^33P]-ATP (about 4×10^5 cpm/well), kinase and substrate.
(§9) The reaction was carried out at 30° C. for 60 minutes, and 50 μL of 2% (v/v) phosphoric acid was added to terminate the reaction. The reaction mixture in each well was aspirated and washed twice with 200 μL of 0.9% (w/v) NaCl solution. The amount of the incorporation of ^33P was determined by using a microplate scintillation counter.

VEGFR2 = target: T2, VEGFR2 (Homo sapiens, UniProt P35968); test: Radioactive protein kinase assay (33PanQinase Activity Assay), VEGFR2; settings: ATP 1.0 μM (Km), substrate Poly(Glu, Tyr) 4:1, 30° C., 60 minutes; read-out: Biochemical IC50 (nM) VEGFR2
T2 construct: purchased ProQinase GmbH
T2 sequence (P35968 20-1356): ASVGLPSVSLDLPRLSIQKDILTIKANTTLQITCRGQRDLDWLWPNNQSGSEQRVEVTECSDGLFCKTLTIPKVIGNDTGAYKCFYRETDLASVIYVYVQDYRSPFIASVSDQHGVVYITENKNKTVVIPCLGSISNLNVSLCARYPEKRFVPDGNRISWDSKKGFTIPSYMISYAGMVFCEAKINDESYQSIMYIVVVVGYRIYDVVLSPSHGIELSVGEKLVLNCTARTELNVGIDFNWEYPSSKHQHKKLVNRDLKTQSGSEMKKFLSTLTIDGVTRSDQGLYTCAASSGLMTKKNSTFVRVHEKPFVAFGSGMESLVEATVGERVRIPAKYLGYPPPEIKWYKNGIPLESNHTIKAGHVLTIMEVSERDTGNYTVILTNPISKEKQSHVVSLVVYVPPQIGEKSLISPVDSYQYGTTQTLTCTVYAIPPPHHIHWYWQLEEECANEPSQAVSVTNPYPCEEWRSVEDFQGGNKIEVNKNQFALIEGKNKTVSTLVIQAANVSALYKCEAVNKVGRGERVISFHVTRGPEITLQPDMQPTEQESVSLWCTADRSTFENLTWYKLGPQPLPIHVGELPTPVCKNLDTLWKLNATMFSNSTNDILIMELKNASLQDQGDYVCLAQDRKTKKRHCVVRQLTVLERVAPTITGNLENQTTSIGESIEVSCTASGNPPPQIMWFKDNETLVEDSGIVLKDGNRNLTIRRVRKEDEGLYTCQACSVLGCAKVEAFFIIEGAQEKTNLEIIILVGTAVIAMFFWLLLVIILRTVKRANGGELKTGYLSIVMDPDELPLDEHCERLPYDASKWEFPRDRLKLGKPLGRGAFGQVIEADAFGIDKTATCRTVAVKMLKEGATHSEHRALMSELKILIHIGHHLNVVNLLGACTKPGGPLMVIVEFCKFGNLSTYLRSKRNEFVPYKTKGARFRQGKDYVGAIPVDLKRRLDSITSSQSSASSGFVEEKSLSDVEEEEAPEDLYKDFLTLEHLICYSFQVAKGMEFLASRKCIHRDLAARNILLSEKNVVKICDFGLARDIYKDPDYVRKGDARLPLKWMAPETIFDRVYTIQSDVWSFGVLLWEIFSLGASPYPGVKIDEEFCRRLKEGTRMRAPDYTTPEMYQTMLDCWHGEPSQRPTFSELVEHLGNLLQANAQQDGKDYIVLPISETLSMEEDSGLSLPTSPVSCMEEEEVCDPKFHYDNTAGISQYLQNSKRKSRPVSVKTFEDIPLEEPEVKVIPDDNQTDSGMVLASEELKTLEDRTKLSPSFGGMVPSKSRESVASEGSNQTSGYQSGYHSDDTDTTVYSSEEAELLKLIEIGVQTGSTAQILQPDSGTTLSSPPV
Method: as §1, §2, §3, §4, §5, §6, §7, §8, §9

Structure (SMILES) | IC50 (AXL) [nM] | IC50 (VEGFR2) [nM]
COc1cc2c(Oc3ccc(NC(=O)C4(C(=O)Nc5ccc(F)cc5)CC4)cc3F)ccnc2cc1OCCCCC(=O)O [Example 8, Triethylammonium 5-[[4-[2-fluoro-4-[[1-[(4-fluorophenyl)carbamoyl]cyclopropanecarbonyl]amino]phenoxy]-6-methoxy-7-quinolyl]oxy]valerate] | 6.08 | 8.66
COc1cc2c(Oc3ccc(NC(=O)C4(C(=O)Nc5ccc(F)cc5)CC4)cc3F)ccnc2cc1OCCCCCC(=O)O [Example 9, 6-[[4-[2-fluoro-4-[[1-[(4-fluorophenyl)carbamoyl]cyclopropanecarbonyl]amino]phenoxy]-6-methoxy-7-quinolyl]oxy]caproic acid] | 10.2 | 16
COc1cc2c(Oc3ccc(NC(=O)C4(C(=O)Nc5ccc(F)cc5)CC4)cc3F)ccnc2cc1OCCCCCCC(=O)O [Example 14, 7-[[4-[2-fluoro-4-[[1-[(4-fluorophenyl)carbamoyl]cyclopropanecarbonyl]amino]phenoxy]-6-methoxy-7-quinolyl]oxy]heptanoic acid] | 13.7 | 13.6
COc1cc2c(Oc3ccc(NC(=O)C4(C(=O)Nc5ccc(F)cc5)CC4)cc3F)ccnc2cc1OCCCCCC(=O)O [Example 13, 1,3-dihydroxy-2-(hydroxymethyl)propan-2-ammonium 6-[[4-[2-fluoro-4-[[1-[(4-fluorophenyl)carbamoyl]cyclopropanecarbonyl]amino]phenoxy]-6-methoxy-7-quinolyl]oxy]caproate] | 8.63 | 12.6
COc1cc2c(Oc3ccc(NC(=O)C4(C(=O)Nc5ccc(F)cc5)CC4)cc3F)ccnc2cc1OCCCCCC(=O)O [Example 11, Potassium 6-[[4-[2-fluoro-4-[[1-[(4-fluorophenyl)carbamoyl]cyclopropanecarbonyl]amino]phenoxy]-6-methoxy-7-quinolyl]oxy]caproate] | 14.9 | 13.6
COc1cc2c(Oc3ccc(NC(=O)C4(C(=O)Nc5ccc(F)cc5)CC4)cc3F)ccnc2cc1OCC(=O)O [Example 1, 2-[[4-[2-fluoro-4-[[1-[(4-fluorophenyl)carbamoyl]cyclopropanecarbonyl]amino]phenoxy]-6-methoxy-7-quinolyl]oxy]acetic acid] | 55.3 | 24.5
COc1cc2c(Oc3ccc(NC(=O)C4(C(=O)Nc5ccc(F)cc5)CC4)cc3F)ccnc2cc1OCCCCCC(=O)O [Example 12, Calcium 6-[[4-[2-fluoro-4-[[1-[(4-fluorophenyl)carbamoyl]cyclopropanecarbonyl]amino]phenoxy]-6-methoxy-7-quinolyl]oxy]caproate (1:1)] | 10.7 | 10.4
COc1cc2c(Oc3ccc(NC(=O)C4(C(=O)Nc5ccc(F)cc5)CC4)cc3F)ccnc2cc1OCCCCCC(=O)O [Example 10, Sodium 6-[[4-[2-fluoro-4-[[1-[(4-fluorophenyl)carbamoyl]cyclopropanecarbonyl]amino]phenoxy]-6-methoxy-7-quinolyl]oxy]caproate] | 11.9 | 13.9
CCOc1cc2c(Oc3ccc(NC(=O)C4(C(=O)Nc5ccc(F)cc5)CC4)cc3F)ccnc2cc1OCC(=O)O [Example 18, Potassium 2-[[4-[2-fluoro-4-[[1-[(4-fluorophenyl)carbamoyl]cyclopropanecarbonyl]amino]phenoxy]-6-ethoxy-7-quinolyl]oxy]acetate] | 10.7 | 9.86
COc1cc2c(Oc3ccc(NC(=O)C4(C(=O)Nc5ccc(F)cc5)CC4)cc3F)ccnc2cc1OCCCC(=O)O [Example 3, 4-[[4-[2-fluoro-4-[[1-[(4-fluorophenyl)carbamoyl]cyclopropanecarbonyl]amino]phenoxy]-6-methoxy-7-quinolyl]oxy]butyric acid] | 9.86 | 6.56
COc1cc2c(Oc3ccc(NC(=O)C4(C(=O)Nc5cccc(Cl)c5)CC4)cc3F)ccnc2cc1OCCCCCCC(=O)O [Example 16, Calcium 7-[[4-[2-fluoro-4-[[1-[(3-chlorophenyl)carbamoyl]cyclopropanecarbonyl]amino]phenoxy]-6-methoxy-7-quinolyl]oxy]heptanoate] | 19.8 | 18.9
COc1cc2c(Oc3ccc(NC(=O)C4(C(=O)Nc5ccc(F)cc5)CC4)cc3F)ccnc2cc1OCCCCC(=O)O [Example 6, 5-[[4-[2-fluoro-4-[[1-[(4-fluorophenyl)carbamoyl]cyclopropanecarbonyl]amino]phenoxy]-6-methoxy-7-quinolyl]oxy]valeric acid] | 7.49 | 6.6
COc1cc2c(Oc3ccc(NC(=O)C4(C(=O)Nc5ccc(F)cc5)CC4)cc3F)ccnc2cc1OCCCC(=O)O [Example 4, Sodium 4-[[4-[2-fluoro-4-[[1-[(4-fluorophenyl)carbamoyl]cyclopropanecarbonyl]amino]phenoxy]-6-methoxy-7-quinolyl]oxy]butyrate] | 9.05 | 8.03
